Results on one molecule are retold here after ChEMBL document CHEMBL3272018, “Synthesis of aziridinylallylaminophosphine oxides and sulfides as potential adjuvant cancer chemotherapeutic agents” (J Med Chem, 1976).

The subject of data set [1] is Musca domestica. The data set is described as follows: Toxicity in male house fly assessed as sterility. Conditions: in vivo. The format is organism-based.
For data set [2], the system named is Musca domestica. The data set is described as follows: Toxicity in mixed sex house flies assessed as sterility at 1% administered in sugar relative to control. It counts as organism-based. Conditions: in vivo, po.

On to `C=CCN(C1=CCCCC1)P(=O)(N1CC1C)N1CC1C` (configuration not stated), for which the Activity entry is “Non-toxic” in the data set on Musca domestica [1] and 82% with Musca domestica [2].
